Laboratory results taken from patent US8722580B2, “Agent for inhibiting cytokinin signaling” (Sumitomo Chemical Company, Limited, priority 2006, dated 2014).

Experiments:
cytokinin receptor CRE1 = molecular target: T1, cytokinin receptor CRE1 (Arabidopsis thaliana, UniProt Q9C5U0, S567G/T1018A); assay: Inhibition of intracellular signaling from plant-derived cytokinin receptor, growth of transformed yeast cell TM182-CRE1; format: cell-based; conditions: trans-zeatin 0.6 ppm, chemical substance 2 ppm; for Relative growth rate (%) in test section of test substance to control section, Transformed cell TM182-CRE1: 30° C., 24 hours, turbidity OD 600; for Activity (%) of test substance for inhibiting intracellular signaling from plant-derived cytokinin receptor of cell: = 100 − relative growth rate of TM182-CRE1
T1 construct: expressed in transfected cells; host or cells: Saccharomyces cerevisiae TM182 (sln1Δ) transformed with p415CYC-CRE1
Method: (§1) The transformed cell TM182-CRE1 and the transformed cell TM182-p415CYC1 obtained in Example 6 were each inoculated in 10 ml of a DOLU+Gal medium, and preincubated at 30° C. for 18 hours to obtain a preincubation liquid for each of the transformed cells. The preincubation liquid was diluted with a DOLU+Glu medium for the transformed cell TM182-CRE1 or with a DOLU+Gal medium for the transformed cell TM182-p415CYC1 until OD600=0.1 was reached, to obtain a preincubation dilution for each of the transformed cells.
(§2) To each well of a 96-well plate was added 1 μl of a 200 ppm solution of a test substance in dimethyl sulfoxide (DMSO) to prepare an Assay plate. At the same time, as controls, only 1 μl of DMSO was added to a part of wells. An assay plate for the transformed cell TM182-CRE1 and an assay plate for the transformed cell TM182-p415CYC1 were prepared.
(§3) A 10,000 ppm solution of trans-zeatin (cytokinin) in DMSO was 50-fold diluted with a DOLU+Gul medium to 200 ppm. The 200 ppm trans-zeatin solution was added in an amount of 3/1,000 volume to each of the above-described preincubation dilution to prepare each preincubation dilution containing trans-zeatin at 0.6 ppm. The 0.6 ppm preincubation dilution was added in an amount of 100 μl to each wells of the assay plate for each transformed cell. The plates were incubated at 30° C. for 24 hours. Then, turbidity (OD 600) of each well was measured by using a plate reader. The activity of the test substance for inhibiting intracellular signaling from a plant-derived cytokinin receptor of a cell was tested by comparing the measured turbidity with the turbidity of the control well.
(§4) (Relative growth rate in test section to control section) [%]=[(Turbidity in test section)−(Turbidity in blank)]/[(Turbidity in control section)−(Turbidity in blank)]×100 (Activity of inhibiting intracellular signaling from plant-derived cytokinin receptor of cell) [%]=100−(Relative growth rate in test section to control section)
(§5) In all cases, the existing concentration of trans-zeatin was adjusted to 0.6 ppm and the existing concentration of a chemical substance was adjusted to 2 ppm.
(§6) In all cases, the existing concentration of trans-zeatin was adjusted to 0.6 ppm and the existing concentration of a chemical substance was adjusted to 2 […].

[1] = test system: transformed cell TM182-p415CYC1; assay: Control growth test with transformed yeast cell TM182-p415CYC1 (toxicity to yeast); format: cell-based; conditions: trans-zeatin 0.6 ppm; chemical substance 2 ppm; 30° C., 24 hours; turbidity OD 600
Method: as §1, §2, §3, §4, §5, §6

Arabidopsis thaliana = assay: Root growth-promoting activity test (Example 9); format: in vivo; conditions: main root length vs control section, 22° C., 10 days
Method: Enshi standard medium having the following composition (see Table 10) was prepared. To cluster tubes was dispensed each 4 μl of a solution of a chemical substance in DMSO to a final concentration of 0.001 ppm to 10 ppm, and then, was dispensed each 600 μl of the sterilized Enshi standard medium. Then the resulting solution was well mixed. In each of the cluster tubes, 10-20 seeds of Arabidopsis thaliana were sown, and cultured at 22° C. for 10 days in the light. Then, the length of main roots (average main roots) generated from the seeds of Arabidopsis thaliana was measured. An average of eight repeats was determined, and a root growth rate was determined according to the following equation.
Root growth rate (%)=(Average main root length in chemical substance-treated section)/(Average main root length in control section)×100

[2] = test final concentration 0.156 ppm (concentration with highest root growth rate)
[3] = test final concentration 10 ppm (concentration with highest root growth rate)
[4] = test final concentration 5 ppm (concentration with highest root growth rate)
[5] = test final concentration 2.5 ppm (concentration with highest root growth rate)
[6] = test final concentration 0.625 ppm (concentration with highest root growth rate)

T1 sequence (Q9C5U0 24-1080 S567G/T1018A): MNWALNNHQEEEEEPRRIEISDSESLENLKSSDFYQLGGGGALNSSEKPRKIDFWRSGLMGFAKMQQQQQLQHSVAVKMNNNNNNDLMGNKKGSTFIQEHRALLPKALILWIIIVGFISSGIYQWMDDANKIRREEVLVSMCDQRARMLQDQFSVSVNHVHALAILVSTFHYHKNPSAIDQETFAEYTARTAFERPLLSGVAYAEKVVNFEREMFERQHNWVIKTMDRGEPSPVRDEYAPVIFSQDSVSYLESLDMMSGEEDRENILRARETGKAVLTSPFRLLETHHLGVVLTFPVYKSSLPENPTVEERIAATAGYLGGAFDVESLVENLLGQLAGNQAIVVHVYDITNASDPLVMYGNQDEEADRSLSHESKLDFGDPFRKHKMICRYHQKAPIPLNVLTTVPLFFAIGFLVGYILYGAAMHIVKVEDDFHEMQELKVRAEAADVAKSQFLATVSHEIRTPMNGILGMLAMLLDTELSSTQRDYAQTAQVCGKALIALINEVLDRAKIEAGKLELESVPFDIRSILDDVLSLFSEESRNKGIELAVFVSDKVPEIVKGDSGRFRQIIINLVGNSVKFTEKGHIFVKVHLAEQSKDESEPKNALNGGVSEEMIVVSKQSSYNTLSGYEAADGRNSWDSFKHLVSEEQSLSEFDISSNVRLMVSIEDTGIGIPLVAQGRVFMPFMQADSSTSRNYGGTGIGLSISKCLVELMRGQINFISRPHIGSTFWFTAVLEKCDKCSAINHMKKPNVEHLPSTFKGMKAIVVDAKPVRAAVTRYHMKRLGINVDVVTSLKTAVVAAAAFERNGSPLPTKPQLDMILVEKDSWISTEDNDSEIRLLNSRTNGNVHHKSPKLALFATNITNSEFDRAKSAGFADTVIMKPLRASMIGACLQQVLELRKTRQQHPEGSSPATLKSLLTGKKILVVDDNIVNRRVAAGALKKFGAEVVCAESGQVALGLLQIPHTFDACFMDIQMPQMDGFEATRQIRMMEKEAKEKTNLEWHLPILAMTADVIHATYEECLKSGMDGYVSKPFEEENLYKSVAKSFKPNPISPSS

| SMILES | Relative growth rate (%) in test section of test substance to control section, Transformed cell TM182-CRE1 (cytokinin receptor CRE1) [%] | Activity (%) of test substance for inhibiting intracellular signaling from plant-derived cytokinin receptor of cell (cytokinin receptor CRE1) [%] | Relative growth rate (%) in test section of test substance to control section, Transformed cell TM182-p415CYC1 [1] [%] | also measured |
| --- | --- | --- | --- | --- |
| NCCCCNc1nc(-c2ccccc2)c2cc(Cl)ccc2n1 [Ic3-22] | 4.9 | 95.1 | 110.6 | Root growth-promoting activity (root growth rate) (Arabidopsis thaliana; [2]): 129.3% |
| CNc1nc(-c2ccccc2)c2cc(Cl)ccc2n1 [Ic3-23] | 4.1 | 95.9 | 108.1 | Root growth-promoting activity (root growth rate) (Arabidopsis thaliana; [3]): 150.0% |
| COc1ccc2nc(NCCCO)nc(-c3ccccc3)c2c1 [Ic8-1] | – | – | – | Root growth-promoting activity (root growth rate) (Arabidopsis thaliana; [3]): 162.1% |
| Nc1nc(-c2ccccc2)c2cc(Cl)ccc2n1 [Ic3-19] | 2.4 | 97.6 | 102.7 | Root growth-promoting activity (root growth rate) (Arabidopsis thaliana; test final concentration 1.25 ppm (concentration with highest root growth rate)): 155.6% |
| NC(=O)CNc1nc(-c2ccccc2)c2cc(Cl)ccc2n1 [Ic3-31] | – | – | – | Root growth-promoting activity (root growth rate) (Arabidopsis thaliana; [3]): 142.2% |
| CCOCCNc1nc(-c2ccccc2)c2cc(Cl)ccc2n1 [Ic3-45] | 0.8 | 99.2 | 98.7 | – |
| N#CCCNc1nc(-c2ccccc2)c2cc(Cl)ccc2n1 [Ic3-34] | 0.2 | 99.8 | 118.5 | – |
| Clc1nc(-c2ccccc2)c2c(Cl)cccc2n1 [Ia1-1] | – | – | – | Root growth-promoting activity (root growth rate) (Arabidopsis thaliana; [4]): 133.3% |
| N=C(N)Nc1nc(-c2ccccc2)c2cc(Cl)ccc2n1 [Ic3-36] | – | – | – | Root growth-promoting activity (root growth rate) (Arabidopsis thaliana; [5]): 123.1% |
| Cc1ccc2nc(NCCCO)nc(-c3ccccc3)c2c1 [Ic5-5] | 7.2 | 92.8 | 126.3 | Root growth-promoting activity (root growth rate) (Arabidopsis thaliana; [5]): 157.8% |
| Clc1cccc(-c2nc(Cl)nc3ccc(Cl)cc23)c1 [Ia1-14] | – | – | – | Root growth-promoting activity (root growth rate) (Arabidopsis thaliana; [2]): 129.3% |
| NNc1nc(-c2ccccc2)c2cc(Cl)ccc2n1 [Ic3-20] | 5.0 | 95.0 | 86.5 | Root growth-promoting activity (root growth rate) (Arabidopsis thaliana; [3]): 137.8% |
| FC(F)(F)c1ccc2nc(Cl)nc(-c3ccccc3)c2c1 [Ia1-6] | – | – | – | Root growth-promoting activity (root growth rate) (Arabidopsis thaliana; [6]): 126.9% |
| NCCSc1nc(-c2ccccc2)c2cc(Cl)ccc2n1 [Ie3-2] | – | – | – | Root growth-promoting activity (root growth rate) (Arabidopsis thaliana; [3]): 147.6% |
| C#CCNc1nc(-c2ccccc2)c2cc(Cl)ccc2n1 [Ic3-30] | 2.2 | 97.8 | 108.9 | – |
| O=[N+]([O-])c1ccc2nc(Cl)nc(-c3ccccc3)c2c1 [Ia1-7] | 1.2 | 98.8 | 78.8 | – |
| O=Cc1nc(-c2ccccc2Cl)c2cc(Br)ccc2n1 [Ib4-1] | 8.7 | 91.3 | 110.9 | – |
| COCCN(C)c1nc(-c2ccccc2)c2cc(Cl)ccc2n1 [Ic3-9] | 1.5 | 98.5 | 122.0 | – |
| OCCCNc1nc(-c2ccccc2)c2cc(F)ccc2n1 [Ic2-1] | 2.8 | 97.2 | 124.6 | Root growth-promoting activity (root growth rate) (Arabidopsis thaliana; [5]): 127.4% |
| OCCCNc1nc(-c2ccccc2)c2cc(Br)ccc2n1 [Ic4-2] | 0.9 | 99.1 | 109.3 | – |
| CN(C)c1nc(-c2ccccc2)c2cc(Cl)ccc2n1 [Ic3-25] | 6.0 | 94.0 | 122.0 | Root growth-promoting activity (root growth rate) (Arabidopsis thaliana; [3]): 140.0% |
| OCCNc1nc(-c2ccccc2)c2cc(Br)ccc2n1 [Ic4-1] | 4.6 | 95.4 | 95.0 | – |
| N#CCNc1nc(-c2ccccc2)c2cc(Cl)ccc2n1 [Ic3-26] | 5.3 | 94.7 | 110.7 | Root growth-promoting activity (root growth rate) (Arabidopsis thaliana; [4]): 136.4% |
| CN(C)CCNc1nc(-c2ccccc2)c2cc(Cl)ccc2n1 [Ic3-21] | 5.0 | 95.0 | 121.6 | Root growth-promoting activity (root growth rate) (Arabidopsis thaliana; [5]): 131.7% |
| CN(CCO)c1nc(-c2ccccc2)c2cc(Cl)ccc2n1 [Ic3-6] | 2.8 | 97.2 | 114.6 | Root growth-promoting activity (root growth rate) (Arabidopsis thaliana; [6]): 122.4% |
| Fc1ccc2nc(Cl)nc(-c3ccccc3)c2c1 [Ia1-2] | – | – | – | Root growth-promoting activity (root growth rate) (Arabidopsis thaliana; [3]): 139.7% |
| NCCOc1nc(-c2ccccc2)c2cc(Cl)ccc2n1 [Id3-1, 2-(2-aminoethoxy)-6-chloro-4-phenylquinazotine] | 2.1 | 97.9 | 112.5 | – |
